Results as given in publication PMC9749936, “Synthesis and structure–activity relationship studies of N-terminal analogues of the lipopeptide antibiotics brevicidine and laterocidine” (RSC Medicinal Chemistry, 2022).
Bridge positions count the residues as written; N and C are the ends. Square brackets hold non-standard residues; d marks the D form. Peptide text beside a SMILES is read from it. * marks the point of attachment. Lauroyl = CCCCCCCCCCCC(=O)*; Decanoyl = CCCCCCCCCC(=O)*; dOrn = NCCC[C@@H](N)C(=O)O; Octanoyl = CCCCCCCC(=O)*; Orn = NCCC[C@H](N)C(=O)O; Hexanoyl = CCCCCC(=O)*

Experiments:
E. coli ATCC 25922 MCR-1 = type: cell-based, Escherichia coli; details: colistin-resistant strain carrying mcr-1; CLSI broth microdilution in MHB, 18 h at 37 °C, visual inspection; three technical replicates
Procedure: (§1) The minimum inhibitory concentrations (MICs) of brevicidine and laterocidine analogues were determined against a panel of clinically relevant ESKAPE pathogens; Escherichia coli (E. coli), Klebsiella pneumoniae (K. pneumoniae), Acinetobacter baumannii (A. baumannii), Pseudomonas aeruginosa (P. aeuroginosa) and Staphylococcus aureus (S. aureus), which cause the majority of nosocomial infections in the United States.[16] […] In this resistance mechanism, the polymyxin target (lipid A) is modified, reducing binding affinity. For this reason, a strain of colistin-resistant E. coli carrying the mcr-1 gene was also included in the panel. […]
Colisitin sulfate was purchased from Activate Scientific. Kanamycin monosulfate was purchased from MP Biomedicals. E. coli ATCC 25922, S. aureus USA300 (ATCC BAA1717), K. pneumoniae ATCC 13883 and A. baumannii ATCC 17961 belong to the American Type Culture Collection (ATCC). P. aeruginosa PAO1 was kindly provided by L.H.C. Quarles Van Ufford, Utrecht University, Utrecht, The Netherlands. E. coli ATCC 25922 MCR-1 was transfected in house using the pGDP2-MCR1 plasmid kindly provided by Yong-Xin Li, The University of Hong Kong, Hong Kong, China. Sheep blood agar plates (Ref. PB5039A) were purchased from Thermo Scientific. Tryptic soy broth (Ref. 02-200-500) was purchased from Scharlab. Mueller-Hinton broth (Ref. X927.1) was purchased from Carl Roth. Polypropylene 96-wells plates (Ref. 3879) were purchased from Corning. […]
(10.0 mL). 2-Chlorotrityl (CT) chloride resin (2.00 g, 0.81 mmol g-1) and DIPEA (420 µL, 2.40 mmol) were added. […]
A gradient […]
method for C14 - C16 laterocidine was employed, starting at 100% solvent A for 2 min, ramping up to 70 % solvent B over 45 min, ramping up to 100% solvent B over 1 min, remaining there for 6 min before ramping down to 100% solvent A and remaining there for 5 min. High resolution mass spectrometry (HRMS) spectra of brevicidine peptides were recorded by Analytical Services and Environmental Projects (ASEP) at Queen’s University Belfast on a Waters LCT Premier ToF mass spectrometer using the electrospray ionisation (ESI) technique. HRMS spectra of laterocidine peptides were performed on a Thermo Scientific Dionex UltiMate 3000 HPLC system with a Phenomenex Kinetex C18 (2.6 µm, 2.1 x 150 mm) column at 35 °C and equipped with a diode array detector. The following solvent system, at a flow rate of 0.3 mL/min, was used: solvent A = 0.1% formic acid in water, solvent B = 0.1% formic acid in acetonitrile. A gradient method was employed, starting at 95 % solvent A and 5 % solvent B for 1 min, ramping up to 95 % solvent B over 9 min, ramping up to 98 % solvent B over 1 min, remaining there for 1 min before ramping back down to 95 % solvent A over 2 min and remaining there for 1 min.
The system was connected to a Bruker micrOTOF-Q II mass spectrometer (ESI ionization) calibrated internally with sodium […]
(§2) IV. Antimicrobial testing
(§3) All minimum inhibitory concentrations (MICs) were determined according to Clinical and Standards Laboratory Institute (CLSI) guidelines. Blood agar plates were inoculated with glycerol stocks of E. coli ATCC 25922, K. pneumoniae ATCC 13883, A. baumannii ATCC 17961, P. aeruginosa PAO1 and S. aureus USA300. The inoculated agar plates were then incubated for 16 h at 37 °C . Individually grown colonies were subsequently used to inoculate 5 mL aliquots of TSB that were then incubated at 37 °C with shaking at 220 rpm. E. coli 25922 MCR-1 glycerol stock was used to inoculate 5 mL of TSB supplemented with kanamycin that was then incubated for 16 h at 37 °C with shaking at 220 rpm. The next day the culture was diluted 100 fold in TSB supplemented with kanamycin and incubated at 37 °C with shaking at 220 rpm. In parallel, the lipopeptide antibiotics DMSO stocks to be assessed were serially diluted with MHB in polypropylene 96-well plates (50 µL in each well). Colistin sulfate stocks were dissolved in water before being diluted with MHB. […]

A. baumannii ATCC 17961 = type: cell-based, Acinetobacter baumannii; details: ATCC 17961, 18 h
Procedure: as §1, §2
as §3, with “MHB. Aliquots of the inoculated TSB were incubated until an OD600 of around 0.5 was reached. The bacterial suspensions were then diluted with MHB (2 x 10^5 CFU mL-1) and added to the microplates containing the test compounds (50 µL to each well). The well-plates were sealed with an adhesive membrane and after 18 h of incubation at 37 °C with shaking at 600 rpm, the wells were visually inspected for bacterial” for “MHB.”
(§4) growth. MIC values reported are based on three technical replicates and defined as the lowest concentration of the compound that prevented visible growth of bacteria. […]
(§5) The values obtained from a read-out at 415 nm were corrected for background (negative control) and transformed to a percentage relative to the positive control.
(§6) VI. HPLC and HRMS analysis of peptides
(§7) Peptide Name Chemical Calcd Mass found Calcd Overall […]

E. coli ATCC 25922 = type: cell-based, Escherichia coli; details: ATCC 25922, 18 h
Procedure: as §1, §2
as §3, with “MHB. Aliquots of the inoculated TSB were incubated until an OD600 of around 0.5 was reached. The bacterial suspensions were then diluted with MHB (2 x 10^5 CFU mL-1) and added to the microplates containing the test compounds (50 µL to each well). The well-plates were sealed with an adhesive membrane and after 18 h of incubation at 37 °C with shaking at 600 rpm, the wells were visually inspected for bacterial” for “MHB.”
as §4, §5, §6, §7

P. aeruginosa PAO1 = type: cell-based, Pseudomonas aeruginosa; details: PAO1, 18 h
Procedure: as §1, §2
as §3, with “MHB. Aliquots of the inoculated TSB were incubated until an OD600 of around 0.5 was reached. The bacterial suspensions were then diluted with MHB (2 x 10^5 CFU mL-1) and added to the microplates containing the test compounds (50 µL to each well). The well-plates were sealed with an adhesive membrane and after 18 h of incubation at 37 °C with shaking at 600 rpm, the wells were visually inspected for bacterial” for “MHB.”
as §4, §5, §6, §7

K. pneumoniae ATCC 13883 = type: cell-based, Klebsiella pneumoniae; details: ATCC 13883, 18 h
Procedure: as §1, §2
as §3, with “MHB. Aliquots of the inoculated TSB were incubated until an OD600 of around 0.5 was reached. The bacterial suspensions were then diluted with MHB (2 x 10^5 CFU mL-1) and added to the microplates containing the test compounds (50 µL to each well). The well-plates were sealed with an adhesive membrane and after 18 h of incubation at 37 °C with shaking at 600 rpm, the wells were visually inspected for bacterial” for “MHB.”
as §4, §5, §6, §7

S. aureus USA300 = type: cell-based, Staphylococcus aureus; details: USA300, 18 h
Procedure: as §1, §2
as §3, with “MHB. Aliquots of the inoculated TSB were incubated until an OD600 of around 0.5 was reached. The bacterial suspensions were then diluted with MHB (2 x 10^5 CFU mL-1) and added to the microplates containing the test compounds (50 µL to each well). The well-plates were sealed with an adhesive membrane and after 18 h of incubation at 37 °C with shaking at 600 rpm, the wells were visually inspected for bacterial” for “MHB.”
as §4, §5, §6, §7

Sheep red blood cells = type: cell-based; details: red cells of sheep, 1 h, 64 μg mL^−1
Procedure: Having ascertained the antimicrobial activity of all synthetic peptides against a panel of ESKAPE pathogens, we next assessed their mammalian toxicity with hemolytic assays using sheep red blood cells. The % hemolysis for all peptides at 64 μg mL^−1 was determined, with the hemolysis induced by the surfactant 0.1% Triton X-100 taken as 100%. […] Hemolysis was <1% for all analogues with a C8 chain or shorter, including the strongest antibacterial peptide C8-Lat (22). Hemolytic activity increased up to C14 (>50% for C14-Lat) and then decreased at longer chain lengths, perhaps due to decreased solubility of peptides or aggregation. […]
Phosphate-Buffered Saline (PBS) containing 0.002% Tween20 (buffer) five times. Then, the red blood cells were normalized to obtain a positive control read-out between 2.5 and 3.0 at 415 nm to stay within the linear range with the maximum sensitivity. A serial dilution of the compounds (128 – 1 µg/mL, 75 µL) was prepared in a 96-well polypropylene plate. The outer border of the plate was filled with 75 µL buffer. Each plate contained a positive control (0.1% Triton-X final concentration, 75 µL) and a negative control (buffer, 75 µL) in triplicate. The normalized blood cells (75 µL) were added and the plates were incubated at 37 °C for 1 h while shaking at 500 rpm. A flat-bottom polystyrene plate with 100 µL buffer in each well was prepared. After incubation, the plates were centrifuged (800 g for 5 min at room temperature) and 25 µL of the supernatant was transferred to their respective wells in the flat-bottom plate. The values obtained from a read-out at 415 nm were corrected for background (negative control) and transformed to a percentage relative to the positive control. […]

CCCCCC(=O)N[C@H](CC(N)=O)C(=O)N[C@H](Cc1ccc(O)cc1)C(=O)N[C@H](Cc1c[nH]c2ccccc12)C(=O)N[C@H](CCCN)C(=O)N[C@@H](CCCN)C(=O)NCC(=O)N[C@H](CCCN)C(=O)N[C@@H](Cc1c[nH]c2ccccc12)C(=O)N[C@@H]1C(=O)N[C@@H]([C@@H](C)CC)C(=O)NCC(=O)N[C@@H](CO)C(=O)O[C@@H]1C [Compound 12] (Hexanoyl-[dN][dY][dW][dOrn][Orn]G[dOrn]WTIGS; ester 9-C)
Antimicrobial activity (MIC) E. coli ATCC 25922 MCR-1 (E. coli ATCC 25922 MCR-1): 8 µg/mL
Antimicrobial activity (MIC) A. baumannii ATCC 17961 (A. baumannii ATCC 17961): 16 µg/mL
Antimicrobial activity (MIC) E. coli ATCC 25922 (E. coli ATCC 25922): 8 µg/mL
Antimicrobial activity (MIC) P. aeruginosa PAO1 (P. aeruginosa PAO1): >32 µg/mL
Antimicrobial activity (MIC) K. pneumoniae ATCC 13883 (K. pneumoniae ATCC 13883): 4 µg/mL
Antimicrobial activity (MIC) S. aureus USA300 (S. aureus USA300): >32 µg/mL
% Hemolytic activity, sheep red blood cells (Sheep red blood cells): 0.3%

CCCCCCCC(=O)N[C@H](CC(N)=O)C(=O)N[C@H](Cc1ccc(O)cc1)C(=O)N[C@H](Cc1c[nH]c2ccccc12)C(=O)N[C@H](CCCN)C(=O)N[C@@H](CCCN)C(=O)NCC(=O)N[C@H](CCCN)C(=O)N[C@@H](Cc1c[nH]c2ccccc12)C(=O)N[C@@H]1C(=O)N[C@@H]([C@@H](C)CC)C(=O)NCC(=O)N[C@@H](CO)C(=O)O[C@@H]1C [Compound 13] (Octanoyl-[dN][dY][dW][dOrn][Orn]G[dOrn]WTIGS; ester 9-C)
Antimicrobial activity (MIC) E. coli ATCC 25922 MCR-1 (E. coli ATCC 25922 MCR-1): 16 µg/mL
Antimicrobial activity (MIC) A. baumannii ATCC 17961 (A. baumannii ATCC 17961): 16 µg/mL
Antimicrobial activity (MIC) E. coli ATCC 25922 (E. coli ATCC 25922): 16 µg/mL
Antimicrobial activity (MIC) P. aeruginosa PAO1 (P. aeruginosa PAO1): 8 µg/mL
Antimicrobial activity (MIC) K. pneumoniae ATCC 13883 (K. pneumoniae ATCC 13883): 16 µg/mL
Antimicrobial activity (MIC) S. aureus USA300 (S. aureus USA300): >32 µg/mL
% Hemolytic activity, sheep red blood cells (Sheep red blood cells): 0.4%

CCCCCCCCCC(=O)N[C@H](CC(N)=O)C(=O)N[C@H](Cc1ccc(O)cc1)C(=O)N[C@H](Cc1c[nH]c2ccccc12)C(=O)N[C@H](CCCN)C(=O)N[C@@H](CCCN)C(=O)NCC(=O)N[C@H](CCCN)C(=O)N[C@@H](Cc1c[nH]c2ccccc12)C(=O)N[C@@H]1C(=O)N[C@@H]([C@@H](C)CC)C(=O)NCC(=O)N[C@@H](CO)C(=O)O[C@@H]1C [Compound 14] (Decanoyl-[dN][dY][dW][dOrn][Orn]G[dOrn]WTIGS; ester 9-C)
Antimicrobial activity (MIC) E. coli ATCC 25922 MCR-1 (E. coli ATCC 25922 MCR-1): 4 µg/mL
Antimicrobial activity (MIC) A. baumannii ATCC 17961 (A. baumannii ATCC 17961): 4 µg/mL
Antimicrobial activity (MIC) E. coli ATCC 25922 (E. coli ATCC 25922): 4 µg/mL
Antimicrobial activity (MIC) P. aeruginosa PAO1 (P. aeruginosa PAO1): 8 µg/mL
Antimicrobial activity (MIC) K. pneumoniae ATCC 13883 (K. pneumoniae ATCC 13883): 4 µg/mL
Antimicrobial activity (MIC) S. aureus USA300 (S. aureus USA300): 32 µg/mL
% Hemolytic activity, sheep red blood cells (Sheep red blood cells): 6.2%

CCCCCCCCCCCC(=O)N[C@H](CC(N)=O)C(=O)N[C@H](Cc1ccc(O)cc1)C(=O)N[C@H](Cc1c[nH]c2ccccc12)C(=O)N[C@H](CCCN)C(=O)N[C@@H](CCCN)C(=O)NCC(=O)N[C@H](CCCN)C(=O)N[C@@H](Cc1c[nH]c2ccccc12)C(=O)N[C@@H]1C(=O)N[C@@H]([C@@H](C)CC)C(=O)NCC(=O)N[C@@H](CO)C(=O)O[C@@H]1C [Compound 15] (Lauroyl-[dN][dY][dW][dOrn][Orn]G[dOrn]WTIGS; ester 9-C)
Antimicrobial activity (MIC) E. coli ATCC 25922 MCR-1 (E. coli ATCC 25922 MCR-1): 8 µg/mL
Antimicrobial activity (MIC) A. baumannii ATCC 17961 (A. baumannii ATCC 17961): 4 µg/mL
Antimicrobial activity (MIC) E. coli ATCC 25922 (E. coli ATCC 25922): 8 µg/mL
Antimicrobial activity (MIC) P. aeruginosa PAO1 (P. aeruginosa PAO1): 16 µg/mL
Antimicrobial activity (MIC) K. pneumoniae ATCC 13883 (K. pneumoniae ATCC 13883): 8 µg/mL
Antimicrobial activity (MIC) S. aureus USA300 (S. aureus USA300): 32 µg/mL
% Hemolytic activity, sheep red blood cells (Sheep red blood cells): 13.3%
